Laboratory results published in patent US20060002932A1, “Methods and compositions for enhancement of immunity by in vivo depletion of immunosuppressive cell activity” (priority 2004, published 2006).
Where “and” joins values, the source holds several entries; their conditions need not be identical. Identical values can stand only once. Entries after “also recorded” stand apart in the source; their conditions may differ.

Columns and labels:
[1] = tested on: antigen-specific CTL from PBMC; experiment: 51Cr cytotoxicity assay of CTL stimulated from DAB389IL-2-depleted PBMC; format: cell-based, human
[2] = tested on: CD4^+/CD25^+ T cells of study subjects; experiment: Treg functional evaluation (suppression of anti-CD3/CD28 activated indicator T cells); format: in vivo, human; settings: CD4^+/CD25^+ T cells isolated prior to vs 4 days after treatment
Protocol: The suppressive activity of Treg isolated from PBMC of study subjects prior to and 4 days after […] administration was analyzed, as described previously^25. CD4^+/CD25^+ T cells were isolated from the PBMC of study subjects using magnetic bead separation techniques. Cells were washed with PBS, resuspended in complete RPMI 1640 medium, and placed into 96-well round bottom plates pre-coated with anti-CD3/CD28 antibodies (0.4 μg/well) (Caltag). CD4^+/CD25^− cells were plated at 2.0×10^4/well alone or in combination with CD4^+/CD25^+ cells in triplicate wells at a ratio of 1:2 (CD4^+/CD25^−:CD4^+CD25^+). On day 5, 1 μCi of ^3H thymidine was added for the final 16 hr of the cultures. Cells were then harvested on glass fiber filters and assessed for uptake of radiolabeled thymidine.

[3] = tested on: CD3+, CD4+, CD8^+ T cells, B cells, monocytes/macrophages, NK cells; experiment: Relative numbers of leukocyte subsets before and after DAB389IL-2; format: in vivo, human
Protocol: Using these methods, the degree of regulatory T cell depletion efficacy in the four subjects treated on the clinical protocol was determined.

tumor-specific T cells = experiment: Interferon-γ ELISPOT of vaccine-induced tumor-specific T cells in patients; format: in vivo, human
Protocol: PBMC were cultured overnight in RPMI 1640 medium supplemented with 10% FCS. […] After washing, spots were counted using an automated Zeiss KS Elispot Compact reader (Carl Zeiss Inc., Minneapolis, Minn.).
In order to determine whether DAB389IL-2-mediated regulatory T cell depletion is capable of augmenting vaccine-induced CTL responses in vivo, Interferon-γ ELISPOT analysis was used to determine the frequencies of vaccine-induced, tumor-specific T cells from PBMC samples collected prior to (white bars) and two weeks after (grey bars) the third vaccination (study week 8). Purified CD8^+ T cells were isolated from pre- and post-vaccination PBMCs and were cultured overnight with tumor RNA transfected DC targets. As controls, PBMC RNA or benign renal epithelium (RE)-derived RNA-transfected DCs were used for short-term antigenic stimulation. Visible spots were then counted using an automated ELISPOT reader. […] In contrast, a significant increase of tumor-specific T cells was consistently observed in the treated subjects after vaccination. […]
Pre- and post-treatment T-cell analysis was performed by Interferon-γ ELISPOT on all patients who completed immunotherapy. Increases of antigen-specific CD4^+ and CD8^+ T cells after vaccination were compared using the Wilcoxon matched-pairs signed rank test, analyzing the null hypothesis that the rates of change in T-cell response were equivalent prior to and after therapy. A two-sided p-value of <0.05 was considered statistically significant.
In order to determine whether DAB389IL-2-mediated Treg depletion is capable of augmenting vaccine-induced CD8^+ and CD4^+ T-cell responses in cancer patients, Interferon-γ ELISPOT analyses were performed to determine the frequencies of vaccine-induced, tumor-specific T cells from PBMC samples collected before and two weeks after the third vaccination. CD8^+ and CD4^+ T cells were isolated from pre- and post-vaccination PBMC and cultured overnight with tumor RNA-transfected DC targets. As controls, autologous PBMC RNA or autologous benign renal epithelium (RE)-derived RNA-transfected DC were used for short-term antigenic stimulation. As exemplified by the 3 study subjects shown in FIG. 10A, only background levels of PBMC-specific T cells were observed before (white bars) or after vaccination (grey bars).

PBMC = experiment: MTT viability of PBMC (bystander toxicity); settings: DAB389IL-2 5 nM
[4] = 6 RCC patients, DAB389IL-2 plus RCC RNA-transfected DC
[5] = per patient, DAB389IL-2 4 days prior to tumor RNA-transfected DC vaccination

Substance: denileukin diftitox [DAB389IL-2]
- improvement of antigen-specific killing ([1]; MART-1 peptide-pulsed DC as stimulators, DAB389IL-2 5 nM): only modest, statistically insignificant improvement of antigen-specific killing
- lytic activity of CTL stimulated from Treg-depleted vs non-depleted PBMC ([1]; mRNA-transfected DC stimulators (hTERT, MART-1)): higher lytic activity against their cognate targets; also recorded: significantly higher lytic activity
- improvement of CTL responses ([1]; recall antigen fluM1, or peptide-loaded DC as stimulators): ineffective in improving CTL responses
- Treg-mediated immunosuppressive activity [2]: abrogation of Treg-mediated immunosuppressive activity in vivo
- change in CD8^+/CD25^+ or CD19^+/CD25^+ cells ([3]; one subject analyzed): no decrease
- change in relative number of CD3+, CD4+, CD8+ T cells, B cells, monocytes/macrophages and NK cells ([3]; prior to and after treatment): no significant changes
- median increase in tumor-specific CD4^+ T cells (tumor-specific T cells; [4]): 7.2 fold
- median increase in tumor-specific CD8^+ T cells (tumor-specific T cells; [4]): 7.9 fold
- tumor-specific T-cell response after DAB389IL-2 alone (tumor-specific T cells; DAB389IL-2 only, no vaccine): did not increase a tumor-specific CTL response in vivo; also recorded: did not significantly increase
- tumor-specific (CD8^+) T cells vs vaccination alone (tumor-specific T cells; DAB389IL-2 plus vaccination compared with vaccine alone): significantly higher numbers of tumor-specific CD8^+ T cells
- increase in tumor-specific CTL frequencies (tumor-specific T cells; Example 2, subjects receiving combined treatment): up to 16 fold
- CD4^+ T-cell responses vs vaccination alone (tumor-specific T cells; combined therapy, RCC patients, p=0.055): trend towards improved CD4^+ T-cell responses
- ELISPOT (Fold increase after vaccination) CD4^+ (tumor-specific T cells; [5]): 7.6 fold and 6.3 fold and 2.2 fold and 9.7 fold and 31.0 fold and 6.8 fold and 4.5 fold
- ELISPOT (Fold increase after vaccination) CD8^+ (tumor-specific T cells; [5]): 16.0 fold and 12.5 fold and 5.4 fold and 7.4 fold and 7.8 fold (2×) and 8.0 fold
- longitudinal vaccine-induced CD8^+ T-cell response (tumor-specific T cells; subject 02-DAB vs 11-RCC): significantly enhanced and also prolonged CD8^+ T-cell response
- PBMC viability over time (PBMC): no significant differences in PBMC viability
